In patent US20230087118A1, “IMIDAZO[1,2-a][sequence] DERIVATIVES AND THEIR USE IN THE TREATMENT OF DISEASE” (priority 2019, published 2023):
Where a name gives a salt, the structure may show the parent alone.

biological target: T1, IRAK4 (Homo sapiens, UniProt Q9NWZ3); assay: biochemical; settings: not given
T1 sequence (Q9NWZ3 1-460): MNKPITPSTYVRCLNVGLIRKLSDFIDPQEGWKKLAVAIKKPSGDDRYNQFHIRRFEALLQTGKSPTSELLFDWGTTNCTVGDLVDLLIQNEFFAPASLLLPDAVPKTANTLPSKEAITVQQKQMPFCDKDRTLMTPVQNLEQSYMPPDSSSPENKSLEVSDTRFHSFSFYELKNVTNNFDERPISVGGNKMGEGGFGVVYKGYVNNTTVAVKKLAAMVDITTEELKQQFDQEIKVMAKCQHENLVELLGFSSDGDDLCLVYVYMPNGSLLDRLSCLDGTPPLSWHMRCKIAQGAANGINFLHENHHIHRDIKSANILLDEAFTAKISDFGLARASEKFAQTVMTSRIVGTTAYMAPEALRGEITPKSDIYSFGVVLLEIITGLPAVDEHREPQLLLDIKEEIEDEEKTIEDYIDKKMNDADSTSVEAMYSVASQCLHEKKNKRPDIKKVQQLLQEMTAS

COc1ncccc1NC(=O)c1cn2cc(C34COC(C)(C3)C4)nc2c(OC2CCC2)n1 [Example 347, 8-Cyclobutoxy-N-(2-methoxypyridin-3-yl)-2-(1-methyl-2-oxabicyclo[2.1.1]hexan-4-yl)imidazo[1,2-a]pyrazine-6-carboxamide] and C[C@]12CC[C@](c3cn4cc(C(=O)Nc5cccc(C(F)F)n5)nc(OC5CCC5)c4n3)(CO1)C2 (single isomer, unassigned) [Example 627] are within 1.5-fold of each other in IC50: 0.0006 µM for the first, 0.0004 µM for the second.

First: CC12CCC(c3cn4cc(C(=O)Nc5ccn(CC#N)n5)c(OC5CCC5)cc4n3)(CO1)C2 (stereo not shown) [Example 532, N-(1-(cyanomethyl)-1H-pyrazol-3-yl)-7-cyclobutoxy-2-(1-methyl-2-oxabicyclo[2.2.1]heptan-4-yl)imidazo[1,2-a]pyridine-6-carboxamide]
Second: CCn1ccc(NC(=O)c2cn3cc(C45COC(C)(C4)C5)nc3cc2OC2CCC2)n1 [Example 528, 7-Cyclobutoxy-N-(1-ethyl-1H-pyrazol-3-yl)-2-(1-methyl-2-oxabicyclo[2.1.1]hexan-4-yl)imidazo[1,2-a]pyridine-6-carboxamide]
The IC50 of the first is 1.8-fold lower: 0.0029 µM for the first, 0.0052 µM for the second. The first is the more potent here.

Going from CC(C)Oc1nc2nc(C34COC(C)(C3)C4)cn2cc1C(=O)Nc1ccn2nccc2n1 [Example 372, 7-Isopropoxy-2-(1-methyl-2-oxabicyclo[2.1.1]hexan-4-yl)-N-(pyrazolo[1,5-a]pyrimidin-5-yl)imidazo[1,2-a]pyrimidine-6-carboxamide] to CC(C)Oc1nc2nc(C34COC(C)(C3)C4)cn2cc1C(=O)Nc1snc2cccnc12 [Example 376, 7-Isopropoxy-N-(isothiazolo[4,3-b]pyridin-3-yl)-2-(1-methyl-2-oxabicyclo[2.1.1]hexan-4-yl)imidazo[1,2-a]pyrimidine-6-carboxamide], the IC50 falls from 0.0576 µM to 0.0018 µM (32-fold).

Compared with Cn1cccc(NC(=O)c2cn3cc(C45CCC(C)(CC4)OC5)nc3cc2OC2CCC2)c1=O [Example 421, 7-Cyclobutoxy-N-(1-methyl-2-oxo-1,2-dihydropyridin-3-yl)-2-(1-methyl-2-oxabicyclo[2.2.2]octan-4-yl)imidazo[1,2-a]pyridine-6-carboxamide], Cn1ccc(NC(=O)c2cn3cc(C45CCC(C)(C4)OC5)nc3cc2OC2CC2)n1 (stereo not shown) [Example 552] is 48-fold higher in IC50: 0.0002 µM for the first, 0.0097 µM for the second. The first is the more potent here.

First: O=C(Nc1cccn(C(F)F)c1=O)c1cn2cc(C3CC3)nc2cc1OC1CCOC1 (stereo not shown) [Example 459, 2-Cyclopropyl-N-(1-(difluoromethyl)-2-oxo-1,2-dihydropyridin-3-yl)-7-((tetrahydrofuran-3-yl)oxy)imidazo[1,2-a]pyridine-6-carboxamide]
Second: CC12CC(c3cn4cc(C(=O)Nc5cccn(C(F)F)c5=O)c(OC5COC5)cc4n3)(CO1)C2 [Example 441, N-(1-(difluoromethyl)-2-oxo-1,2-dihydropyridin-3-yl)-2-(1-methyl-2-oxabicyclo[2.1.1]hexan-4-yl)-7-(oxetan-3-yloxy)imidazo[1,2-a]pyridine-6-carboxamide]
The IC50 of the first is 2.5-fold higher: 0.0084 µM for the first, 0.0034 µM for the second. The second is the more potent here.

First: Cc1cnc2c(NC(=O)c3cn4cc(C56COC(C)(C5)C6)nc4nc3OC3CCC3)cnn2c1 [Example 575, 7-Cyclobutoxy-2-(1-methyl-2-oxabicyclo[2.1.1]hexan-4-yl)-N-(6-methylpyrazolo[1,5-a]pyrimidin-3-yl)imidazo[1,2-a]pyrimidine-6-carboxamide]
Second: CCC(C)Oc1nc2nc(C34COC(C)(C3)C4)cn2cc1C(=O)Nc1cnn2cc(C)cnc12 (single isomer, unassigned) [Example 643]
The IC50 of the first is 1.8-fold higher: 0.0007 µM for the first, 0.0004 µM for the second. The second is the more potent here.

Compared with CCOc1nc2nc(C34CCC(C)(CC3)OC4)cn2cc1C(=O)Nc1ccn(C)n1 [Example 423, 7-Ethoxy-N-(1-methyl-1H-pyrazol-3-yl)-2-(1-methyl-2-oxabicyclo[2.2.2]octan-4-yl)imidazo[1,2-a]pyrimidine-6-carboxamide], CCOc1nc(C(=O)Nc2ccn(CC3CC3)n2)cn2cc(C34CCC(C)(C3)OC4)nc12 (stereo not shown) [Example 282, N-(1-(cyclopropylmethyl)-1H-pyrazol-3-yl)-8-ethoxy-2-(1-methyl-2-oxabicyclo[2.2.1]heptan-4-yl)imidazo[1,2-a]pyrazine-6-carboxamide] is 1.6-fold higher in IC50: 0.0054 µM for the first, 0.0087 µM for the second.

First: CC12CCC(c3cn4cc(C(=O)Nc5cnn6cccnc56)c(OC5CC5)cc4n3)(CO1)C2 (stereo not shown) [Example 554]
Second: CC(C)Oc1nc2nc(C34COC(CF)(C3)C4)cn2cc1C(=O)Nc1cnn2cccnc12 [Example 563, 2-(1-(Fluoromethyl)-2-oxabicyclo[2.1.1]hexan-4-yl)-7-isopropoxy-N-(pyrazolo[1,5-a]pyrimidin-3-yl)imidazo[1,2-a]pyrimidine-6-carboxamide]
The IC50 of the first is 1.6-fold higher: 0.0008 µM for the first, 0.0005 µM for the second.

Going from COc1ncccc1NC(=O)c1cn2cc(C3CC3)nc2cc1OC1CCCC1 [Example 464, 7-(Cyclopentyloxy)-2-cyclopropyl-N-(2-methoxypyridin-3-yl)imidazo[1,2-a]pyridine-6-carboxamide] to COc1ncccc1NC(=O)c1cn2cc(C3CC3)nc2cc1OC1CCC1 [Example 462, 7-Cyclobutoxy-2-cyclopropyl-N-(2-methoxypyridin-3-yl)imidazo[1,2-a]pyridine-6-carboxamide], the IC50 falls from 0.0081 µM to 0.0032 µM (2.5-fold). The second is the more potent here.

Going from CCOc1nc(C(=O)Nc2cccc(Cl)c2)cn2cc(C34COC(C)(C3)C4)nc12 [Example 495, N-(3-chlorophenyl)-8-ethoxy-2-(1-methyl-2-oxabicyclo[2.1.1]hexan-4-yl)imidazo[1,2-a]pyrazine-6-carboxamide] to CCOc1nc(C(=O)Nc2cccc(C)c2F)cn2cc(C34COC(C)(C3)C4)nc12 [Example 496, 8-Ethoxy-N-(2-fluoro-3-methylphenyl)-2-(1-methyl-2-oxabicyclo[2.1.1]hexan-4-yl)imidazo[1,2-a]pyrazine-6-carboxamide], the IC50 falls from 0.0088 µM to 0.0047 µM (1.9-fold). The second is the more potent here.

CC(C)Oc1nc2nc(C34COC(C)(C3)C4)cn2cc1C(=O)Nc1cccnc1OC(F)F [Example 389, N-(2-(difluoromethoxy)pyridin-3-yl)-7-isopropoxy-2-(1-methyl-2-oxabicyclo[2.1.1]hexan-4-yl)imidazo[1,2-a]pyrimidine-6-carboxamide] and CC(C)Oc1nc(C(=O)Nc2cccc(C(F)F)n2)cn2cc([C@]34CC[C@](C)(C3)OC4)nc12 (single isomer, unassigned) [Example 589] are within 1.5-fold of each other in IC50: 0.0032 µM for the first, 0.0024 µM for the second.

Compared with CC(C)Oc1c(C(=O)Nc2cccc(C(F)F)n2)cn2cc(C3CCOCC3)nc2c1F [Example 303, N-(6-(difluoromethyl)pyridin-2-yl)-8-fluoro-7-isopropoxy-2-(tetrahydro-2H-pyran-4-yl)imidazo[1,2-a]pyridine-6-carboxamide], CC(C)Oc1cc2nc([C@@]34CC[C@@H](C3)OC4)cn2cc1C(=O)Nc1cccc(C(F)F)n1 (single isomer, unassigned) [Example 590] is 14-fold lower in IC50: 0.0014 µM for the first, 0.0001 µM for the second. The second is the more potent here.

First: CC(C)Oc1cc2nc(C34CCC(C)(C3)OC4)cn2cc1C(=O)Nc1nc(C(F)(F)F)cs1 (stereo not shown) [Example 503, 7-Isopropoxy-2-(1-methyl-2-oxabicyclo[2.2.1]heptan-4-yl)-N-(4-(trifluoromethyl)thiazol-2-yl)imidazo[1,2-a]pyridine-6-carboxamide]
Second: Cc1cnc2c(NC(=O)c3cn4cc([C@]56CO[C@H](CCO5)C6)nc4cc3OC(C)C)cnn2c1 (single isomer, unassigned) [Example 646]
The IC50 of the first is 6.9-fold higher: 0.0055 µM for the first, 0.0008 µM for the second.

First: CC(C)Oc1nc(C(=O)Nc2ccnc3ccnn23)cn2cc(C34COC(C)(C3)C4)nc12 [Example 400, 8-Isopropoxy-2-(1-methyl-2-oxabicyclo[2.1.1]hexan-4-yl)-N-(pyrazolo[1,5-a]pyrimidin-7-yl)imidazo[1,2-a]pyrazine-6-carboxamide]
Second: CC(C)Oc1cc2nc(Cl)cn2cc1C(=O)Nc1cccc(C(F)F)n1 [Example 265, 2-Chloro-N-(6-(difluoromethyl)pyridin-2-yl)-7-isopropoxyimidazo[1,2-a]pyridine-6-carboxamide]
The IC50 of the first is 2-fold higher: 0.0136 µM for the first, 0.0067 µM for the second.

Compared with COc1cc2nc(C3CCOCC3)cn2cc1C(=O)Nc1ccn(C2CCCC2)n1 [Example 191], COc1cc2nc(C3CCOCC3)cn2cc1C(=O)Nc1ccn(C2CC2(F)F)n1 (stereo not shown) [Example 197] is 1.6-fold lower in IC50: 0.27 µM for the first, 0.166 µM for the second. The second is the more potent here.

same assay, conditions: IRAK4 Biochemical Assay (1 mM ATP, 2 h) IC50 (μM), 1 mM ATP, 2 h, 100 pM IRAK4

First: COc1ncccc1NC(=O)c1cn2cc(C34COC(C)(C3)C4)nc2nc1OC(C)C [Example 305, 7-Isopropoxy-N-(2-methoxypyridin-3-yl)-2-(1-methyl-2-oxabicyclo[2.1.1]hexan-4-yl)imidazo[1,2-a]pyrimidine-6-carboxamide trifluoroacetate]
Second: COc1ncc(F)cc1NC(=O)c1cn2cc(C34COC(C)(C3)C4)nc2nc1OC(C)C [Example 306, N-(5-fluoro-2-methoxypyridin-3-yl)-7-isopropoxy-2-(1-methyl-2-oxabicyclo[2.1.1]hexan-4-yl)imidazo[1,2-a]pyrimidine-6-carboxamide trifluoroacetate]
The IC50 of the first is 6.2-fold lower: 0.0005 µM for the first, 0.0031 µM for the second. The first is the more potent here.

Going from CC(C)Oc1nc2nc(C34COC(C)(C3)C4)cn2cc1C(=O)Nc1cnn2ccc(C(F)F)nc12 [Example 309, N-(5-(difluoromethyl)pyrazolo[1,5-a]pyrimidin-3-yl)-7-isopropoxy-2-(1-methyl-2 oxabicyclo[2.1.1]hexan-4-yl)imidazo[1,2-a]pyrimidine-6-carboxamide trifluoroacetate] to COc1ncccc1NC(=O)c1cn2c(F)c(C34COC(C)(C3)C4)nc2cc1OC(C)C [Example 325, 3-Fluoro-7-isopropoxy-N-(2-methoxypyridin-3-yl)-2-(1-methyl-2-oxa-bicyclo[2.1.1]hexan-4-yl)imidazo[1,2-a]pyridine-6-carboxamide trifluoroacetate], the IC50 falls from 0.0299 µM to 0.0086 µM (3.5-fold).
